Test results as given in patent US6004938A, “Inositolglycans having insulin-like action” (Hoescht Aktiengesellschaft, priority 1996, dated 1999).

Columns and labels:
rat fat cells [1] = assay: Glucose transport in isolated rat fat cells (insulin-like activity); assay type: cell-based, rat (Wistar); settings: rat fat cells, 2-[3H]-deoxyglucose; for Emax: 0.25 h, read-out: Glucose transport % Insmax; for Emax / Glucose transport % Insmax: part of maximum stimulation factor of insulin (set at 100%), 15 min, 37° C.; for EC50: concentration at 50% of the maximum stimulation achieved by the respective compound, read-out: Glucose transport EC50
Description: (§1) This example provides exemplary methods for determining insulin-like activity. The biological activity of the compounds of the formula I according to the invention is determined with the aid of isolated fat cells from the rat.
(§2) The preparation of fat cells from the rat was carried out as follows: White fatty tissue of the epididymis (Wistar rat, 160-180 g, no food restriction) is digested with collagenase and the resulting isolated fat cells are separated off by means of filtration of undigested tissue and washed by flotation several times using Krebs-Ringer-Henseleit buffer (KRH buffer).
[…] After addition of 15 μl of 2-[^3 H]-deoxyglucose (0.3 mM, 0.2 μCi), the incubation is continued at room temperature. After specified times (0-20 min), 100 μl of the test batch are removed and transferred to a reaction vessel (contents 400 μl), in which 250 μl of dinonyl phthalate have been initially introduced. After centrifugation (15,000×g, 1 min), the cells are separated off from the oily layer of the incubation medium underneath the oily layer by cutting the tube at the level of the oily layer and transferring to a scintillation vessel. After addition of 5 ml of water-soluble scintillation fluid, the radioactivity is determined. This total cell-associated radioactivity is corrected for [^3 H]-deoxyglucose which has passively diffused into the cells and is included in the cell interstices by subtraction of a control value (incubation in the presence of the glucose transport inhibitor cytochalasin B). The initial (stimulated) glucose transport rate is linear up to 15 min. The maximum stimulation factor--this is the ratio of the incubation result with insulin to the incubation result without insulin--is set at 100%.
The terms "%Insmax " and "EC50 " are as defined under A) lipogenesis.

rat fat cells [2] = assay: Lipogenesis in isolated rat fat cells (insulin-like activity); assay type: cell-based, rat (Wistar); settings: rat fat cells, 90 min, 37° C.; for EC50: concentration at 50% of the maximum stimulation achieved by the respective compound, read-out: Lipogenesis EC50; for Emax / Lipogenesis % Insmax: part of maximum stimulation factor of insulin (set at 100%), D-[3-3H]glucose; for Emax: read-out: Lipogenesis % Insmax
Description: as §1, §2
This test determines the insulin-stimulable conversion of glucose into toluene-soluble products (triglycerides, phospholipids, fatty acids), which promotes glucose transport and triglyceride (glycerol-3-P synthesis, esterification)/phospholipid/fatty acid synthesis including the insulin signal transmission cascade. At a glucose concentration of 2.5 mM in the test, the esterification (and not the glycerol-3-P synthesis including glucose transport) is rate-determining for the stimulation of lipogenesis.
200 μl (3×10^5 cells/ml) of rat fat cells in KRH buffer are incubated at 37° C. for 90 min with 100 μl of D-[3-^3 H] glucose (25 mM, 0.4 μCi) in the presence or absence of insulin (10 ng/ml) or compound of the formula I according to the invention (final volume 1 ml). By addition of a toluene-soluble scintillation cocktail (10 ml), the cells are disrupted and the lipids are separated off from water-soluble products and the incubation medium. After phase separation, the radioactivity incorporated in lipid products is determined directly without removal of the aqueous phase by scintillation measurement ([^3 H]lipid [dpm×10^-3 ]). A control value (incubation under identical conditions but without cells) is subtracted from this radioactivity. The lipogenesis rate is linear up to 120 min. The maximum stimulation factor--this is the ratio of the incubation result with insulin to the incubation results without insulin--is set at 100%. The percentage data under "%Insmax " are parts of the maximum stimulation factor defined in this way. The term EC50 indicates the concentration of the compound of the formula I at which 50% of the maximum stimulation to be achieved by the respective compound of the formula I is to be observed.

| Molecule | Emax (rat fat cells [1]) [%] | EC50 (rat fat cells [1]) [µM] | EC50 (rat fat cells [2]; 1.5 h) [µM] | Emax (rat fat cells [2]; 1.5 h) [%] | Glucose transport % Insmax (rat fat cells [1]) [%] | EC50 (rat fat cells [2]) [µM] | Lipogenesis % Insmax (rat fat cells [2]) [%] |
| --- | --- | --- | --- | --- | --- | --- | --- |
| N[C@H]1[C@H](O[C@H]2[C@H](O)[C@@H](O)[C@H](OP(=O)(O)O)[C@H](O)[C@@H]2O)O[C@H](CO)[C@@H](O)[C@@H]1O[C@H]1O[C@H](CO[C@H]2O[C@H](CO[PH](=O)O)[C@@H](O)[C@H](O)[C@@H]2O[C@H]2O[C@H](CO[PH](=O)O)[C@@H](O)[C@H](O)[C@@H]2O[C@H]2O[C@H](CO)[C@@H](O)[C@H](O)[C@@H]2O)[C@@H](O)[C@H](O)[C@@H]1O [T, HO-PO(H)O-6Manα1(Manα1-2)-2Manα1(6-PO(H)OH)-6Manα1-3GluNβ1-6(L)inositol-3-phosphate] | 30 | 10 | 12 | 72 | – | – | – |
| N[C@H]1[C@H](O[C@H]2[C@H](O)[C@@H](O)[C@H](OP(=O)(O)O)[C@H](O)[C@@H]2O)O[C@H](CO)[C@@H](O)[C@@H]1O[C@H]1O[C@H](CO[C@H]2O[C@H](CO[PH](=O)O)[C@@H](O)[C@H](O)[C@@H]2O[C@H]2O[C@H](CO)[C@@H](O)[C@H](O)[C@@H]2O[C@H]2O[C@H](CO)[C@@H](O)[C@H](O)[C@@H]2O)[C@@H](O)[C@H](O)[C@@H]1O [U, Manα1-2Manα1-2Manα1(6-PO(H)OH)-6Manα1-3GluNβ1-6(L)inositol-3-phosphate] | 34 | 15 | 15 | 80 | – | – | – |
| N[C@H]1[C@H](O[C@H]2[C@H](O)[C@@H](O)[C@H](OP(=O)(O)O)[C@H](O)[C@@H]2O)O[C@H](CO)[C@@H](O)[C@@H]1O[C@H]1O[C@H](CO[C@H]2O[C@H](COS(=O)(=O)O)[C@@H](O)[C@H](O)[C@@H]2O[C@H]2O[C@H](CO)[C@@H](O)[C@H](O)[C@@H]2O[C@H]2O[C@H](CO)[C@@H](O)[C@H](O)[C@@H]2O)[C@@H](O)[C@H](O)[C@@H]1O [V, Manα1(Manα1-2)-2Manα1(6-HSO3)-6Manα1-3GluNβ1-6(L)inositol-3-phosphate] | 48 | 15 | 15 | 83 | – | – | – |
| N[C@H]1[C@H](O[C@H]2[C@H](O)[C@@H](O)[C@H](OP(=O)(O)O)[C@H](O)[C@@H]2O)O[C@H](CO)[C@@H](O)[C@@H]1O[C@H]1O[C@H](CO[C@H]2O[C@H](COS(=O)(=O)O)[C@@H](O)[C@H](O)[C@@H]2O[C@H]2O[C@H](COS(=O)(=O)O)[C@@H](O)[C@H](O)[C@@H]2O[C@H]2O[C@H](CO)[C@@H](O)[C@H](O)[C@@H]2O)[C@@H](O)[C@H](O)[C@@H]1O [W, HO-SO2 -O-6Manα1(Manα1-2)-2-Manα1(6-HSO3)-6Manα1-3GluNβ1-6(L)inositol-3-phosphate] | 42 | 10 | 10 | 86 | – | – | – |
| H2 N-CO-6Manα1(Manα1-2)-2Manα1-6Manα1-4GluNβ1-6(D)-inositol-1,2-(cyclic)-phosphate [K] | – | 15 | – | – | 23 | 8 | 72 |
| HO-PO(H)O-6-Manα1(Manα1-2)-2-Manα1-6Manα-3GluNβ1-6(L)-inositol-3-phosphate | – | 20 | – | – | 18 | 20 | 32 |
| HO-PO(H)O-6Manα1(Manα1-2)-2-Manα1-6-Manα1-4GluN(HSO3)β-1-6(L)-inositol-1,2-(cyclic)-phosphate [J] | – | 3 | – | – | 21 | 8 | 63 |
| HO-PO(H)O-6Manα1(Manα1-2)-2Manα1-6Manα1-4GluNα1-6(L)inositol-2-phosphate [F] | – | 25 | – | – | 26 | 15 | 53 |
| HO-PO(H)O-6Manα1-6-Manα1-6Manα1-6Manα1-3GluNβ1-6(L)inositol-3-phosphate | – | 50 | – | – | 14 | 20 | 18 |
| HO-SO2 -6Manα1(Manα1-2)-2Manα1-6Manα1-4GluNβ1-6(D)-inositol-1,2-(cyclic)-phosphate | – | 8 | – | – | 36 | 7 | 84 |
